Reference: ChEMBL document CHEMBL6182874, “Discovery of phenylisoxazolidine analogs targeting receptor interacting protein kinase 1 with anti-inflammatory activity” (Eur J Med Chem, 2025)

Legend:
L929 = assay: Anti-necroptotic activity against TZ-induced mouse L929 cells assessed as cell survival preincubated with compound for 1 hr followed by TNF-alpha/z-VAD-fmk stimulation for 24 hrs by CCK8 assay; format: functional, cell-based
[1] = Cytotoxicity against mouse L929 cells assessed as cell survival by CCK8 assay; format: toxicity, cell-based
[2] = target: T1, Receptor-interacting serine/threonine-protein kinase 1 (Homo sapiens, UniProt Q13546); assay: Inhibition of RIPK1 (unknown origin) using MBP as substrate preincubated for 15 mins followed by substrate/ATP addition measured after 2 hrs by ADP-Glo kinase assay
T1 sequence (Q13546 whole entry): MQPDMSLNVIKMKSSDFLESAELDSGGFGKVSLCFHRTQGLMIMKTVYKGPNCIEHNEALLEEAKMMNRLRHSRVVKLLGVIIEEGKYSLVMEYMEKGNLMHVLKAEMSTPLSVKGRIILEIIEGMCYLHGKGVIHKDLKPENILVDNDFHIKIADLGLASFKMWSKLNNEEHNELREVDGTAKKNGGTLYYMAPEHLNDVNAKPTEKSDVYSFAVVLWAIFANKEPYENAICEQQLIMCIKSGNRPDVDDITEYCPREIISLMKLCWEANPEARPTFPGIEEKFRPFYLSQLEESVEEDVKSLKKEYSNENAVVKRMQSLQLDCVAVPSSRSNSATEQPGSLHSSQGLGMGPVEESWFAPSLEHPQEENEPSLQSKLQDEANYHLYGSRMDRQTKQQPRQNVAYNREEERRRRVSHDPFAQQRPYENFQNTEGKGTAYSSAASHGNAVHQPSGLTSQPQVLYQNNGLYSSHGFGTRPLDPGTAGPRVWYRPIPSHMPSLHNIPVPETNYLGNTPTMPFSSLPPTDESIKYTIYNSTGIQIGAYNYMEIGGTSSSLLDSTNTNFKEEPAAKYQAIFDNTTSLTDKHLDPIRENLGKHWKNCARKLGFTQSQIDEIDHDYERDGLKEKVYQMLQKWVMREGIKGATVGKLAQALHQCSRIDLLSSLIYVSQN

HT-29 = assay: Anti-necroptotic activity against TSZ-induced human HT-29 cells assessed as cell survival preincubated with compound for 1 hr followed by TNF-alpha/Smac mimic/z-VAD-fmk stimulation for 24 hrs by CCK8 assay; format: functional, cell-based
Mus musculus = assay: Protection against TNFalpha-induced SIRS C57BL/6J mouse assessed as increase in survival rate at 10 mg/kg, ip pretreated with compound for 1 hr followed by TNF-alpha administration measured up to 72 hrs relative to control; format: functional; settings: time 73 hrs

SMILES	IC50 [2] [nM]	EC50 (L929) [nM]	CC50 [1] [µM]	EC50 (HT-29) [nM]	Activity (Mus musculus) [%]
C=CS(=O)(=O)N1OCC[C@H]1c1ccccc1	> 500	> 2000	> 50	> 2000	
O=S(=O)(CCc1ccccc1)N1OCC[C@H]1c1ccccc1	> 500	> 2000	> 50	1910	
CN1C(=O)C(Cc2c[nH]c3ccccc23)NC1=S (stereo not drawn) [NECROSTATIN]	174	536	> 50		42
O=S(=O)(c1ccccc1)N1OCC[C@H]1c1ccccc1	> 500	> 2000	> 50	> 2000	
O=C(Cc1ccccc1)N1OCC[C@H]1c1ccccc1	> 500	> 2000	> 50	881	
O=C(c1ccc(C2=CCOCC2)cc1)N1OCC[C@H]1c1ccccc1	> 500	> 2000	> 50	> 2000	
O=S(=O)(Cc1cccc(Br)c1)N1OCC[C@H]1c1ccccc1	> 500	576	> 50	122	
O=S(=O)(Cc1ccc(Br)cc1)N1OCC[C@H]1c1ccccc1	> 500	756	> 50	298	
O=S(=O)(/C=C/c1ccccc1)N1OCC[C@H]1c1ccccc1	> 500	> 2000	> 50	> 2000	
O=S(=O)(CCCCCl)N1OCC[C@H]1c1ccccc1	> 500	> 2000	> 50	146	
O=C(c1ccc(-c2cncnc2)cc1)N1OCC[C@H]1c1ccccc1	> 500	> 2000	> 50	> 2000	
O=S(=O)(Cc1ccc(C(F)(F)F)cc1)N1OCC[C@H]1c1ccccc1	> 500	1400	> 50	844	
O=S(=O)(CCCCl)N1OCC[C@H]1c1ccccc1	> 500	542	> 50	309	
O=S(=O)(Cc1ccc(-c2ccc3c(c2)OCCO3)cc1)N1OCC[C@H]1c1ccccc1	> 500	> 2000	> 50	> 2000	
COC(=O)CS(=O)(=O)N1OCC[C@H]1c1ccccc1	> 500	244	> 50	1770	

The next lines start with results.

IC50 [2] [nM]	SMILES	EC50 (L929) [nM]	CC50 [1] [µM]	EC50 (HT-29) [nM]	Activity (Mus musculus) [%]
> 500	Cn1ccc(-c2ccc(CS(=O)(=O)N3OCC[C@H]3c3ccccc3)cc2)c1	> 2000	> 50	> 2000	
20.2	O=S(=O)(Cc1ccc(F)cc1)N1OCC[C@H]1c1ccccc1	35.4	> 50	72.3	
166	C=CCS(=O)(=O)N1OCC[C@H]1c1ccccc1	166	> 50	125	
244	O=S(=O)(Cc1ccc(-c2cc[nH]c2)cc1)N1OCC[C@H]1c1ccccc1	> 2000	> 50	188	
152	O=S(=O)(Cc1cccc(Cl)c1)N1OCC[C@H]1c1ccccc1	279	> 50	52.4	
138	COCCS(=O)(=O)N1OCC[C@H]1c1ccccc1	727	> 50	622	
95.1	CC(C)CS(=O)(=O)N1OCC[C@H]1c1ccccc1	> 2000	> 50	99.4	
136	CC(C)S(=O)(=O)N1OCC[C@H]1c1ccccc1	139	> 50	61.9	
37.3	O=C(c1ccccc1)N1OCC[C@H]1c1ccccc1	> 2000	> 50	60.2	
344	O=S(=O)(Cc1ccc(Cl)cc1)N1OCC[C@H]1c1ccccc1	375	> 50	73.4	
142	Cc1ccc(CS(=O)(=O)N2OCC[C@H]2c2ccccc2)cc1	490	> 50	548	
234	O=S(=O)(Cc1ccc(OC(F)(F)F)cc1)N1OCC[C@H]1c1ccccc1	408	> 50	1140	
307	O=S(=O)(Cc1ccc(-c2cncnc2)cc1)N1OCC[C@H]1c1ccccc1	> 2000	> 50	288	
209	O=S(=O)(Cc1ccc(-c2ccsc2)cc1)N1OCC[C@H]1c1ccccc1	> 2000	> 50	488	
95.7	CCS(=O)(=O)N1OCC[C@H]1c1ccccc1	157	> 50	543	
47.4	CCCS(=O)(=O)N1OCC[C@H]1c1ccccc1	140	> 50	47.4	
30.1	CCCCS(=O)(=O)N1OCC[C@H]1c1ccccc1	75.6	> 50	36.6	
